Columns and labels:
[1] = biological target: Phosphatidylinositol 4,5-bisphosphate 3-kinase catalytic subunit alpha isoform (Homo sapiens, UniProt P42336); experiment: Inhibition of human PI3Kalpha preincubated for 15 mins followed by ATP addition measured after 1 hr by TR-FRET assay
[2] = biological target: Phosphatidylinositol 4,5-bisphosphate 3-kinase catalytic subunit beta isoform (Homo sapiens, UniProt P42338); experiment: Inhibition of human PI3Kbeta preincubated for 15 mins followed by ATP addition measured after 1 hr by TR-FRET assay
Chain of Phosphatidylinositol 4,5-bisphosphate 3-kinase catalytic subunit beta isoform (P42338 whole entry, canonical isoform): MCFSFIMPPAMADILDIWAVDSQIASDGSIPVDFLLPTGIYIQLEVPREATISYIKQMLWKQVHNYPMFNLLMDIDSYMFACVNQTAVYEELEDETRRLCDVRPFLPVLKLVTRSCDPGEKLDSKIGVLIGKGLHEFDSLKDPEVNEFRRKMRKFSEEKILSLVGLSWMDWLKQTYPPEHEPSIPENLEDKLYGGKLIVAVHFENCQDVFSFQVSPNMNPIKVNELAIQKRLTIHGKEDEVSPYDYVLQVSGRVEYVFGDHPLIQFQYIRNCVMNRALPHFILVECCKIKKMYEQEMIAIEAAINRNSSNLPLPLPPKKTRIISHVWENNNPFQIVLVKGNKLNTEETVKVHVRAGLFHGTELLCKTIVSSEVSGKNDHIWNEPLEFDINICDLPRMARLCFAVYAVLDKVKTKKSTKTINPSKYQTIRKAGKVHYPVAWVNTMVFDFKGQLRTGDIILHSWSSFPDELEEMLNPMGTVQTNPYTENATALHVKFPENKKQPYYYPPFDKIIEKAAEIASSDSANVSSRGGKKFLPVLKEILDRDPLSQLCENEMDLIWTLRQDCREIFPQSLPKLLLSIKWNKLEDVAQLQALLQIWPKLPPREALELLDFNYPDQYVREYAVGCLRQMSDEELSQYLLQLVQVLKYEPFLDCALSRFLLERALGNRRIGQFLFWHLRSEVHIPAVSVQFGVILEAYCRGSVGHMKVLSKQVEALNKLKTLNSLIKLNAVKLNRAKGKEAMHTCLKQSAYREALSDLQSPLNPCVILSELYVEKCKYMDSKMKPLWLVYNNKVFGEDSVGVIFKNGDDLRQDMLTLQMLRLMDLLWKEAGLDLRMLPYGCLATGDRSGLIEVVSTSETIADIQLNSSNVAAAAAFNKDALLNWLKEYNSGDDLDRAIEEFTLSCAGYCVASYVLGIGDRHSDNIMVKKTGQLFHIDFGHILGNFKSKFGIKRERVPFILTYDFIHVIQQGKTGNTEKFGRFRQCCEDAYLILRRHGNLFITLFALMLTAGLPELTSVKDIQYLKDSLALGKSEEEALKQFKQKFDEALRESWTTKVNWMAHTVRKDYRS

[3] = biological target: Phosphatidylinositol 4,5-bisphosphate 3-kinase catalytic subunit gamma isoform (Homo sapiens, UniProt P48736); experiment: Inhibition of human PI3Kgamma preincubated for 15 mins followed by ATP addition measured after 1 hr by TR-FRET assay
Chain of Phosphatidylinositol 4,5-bisphosphate 3-kinase catalytic subunit gamma isoform (P48736 whole entry, canonical isoform): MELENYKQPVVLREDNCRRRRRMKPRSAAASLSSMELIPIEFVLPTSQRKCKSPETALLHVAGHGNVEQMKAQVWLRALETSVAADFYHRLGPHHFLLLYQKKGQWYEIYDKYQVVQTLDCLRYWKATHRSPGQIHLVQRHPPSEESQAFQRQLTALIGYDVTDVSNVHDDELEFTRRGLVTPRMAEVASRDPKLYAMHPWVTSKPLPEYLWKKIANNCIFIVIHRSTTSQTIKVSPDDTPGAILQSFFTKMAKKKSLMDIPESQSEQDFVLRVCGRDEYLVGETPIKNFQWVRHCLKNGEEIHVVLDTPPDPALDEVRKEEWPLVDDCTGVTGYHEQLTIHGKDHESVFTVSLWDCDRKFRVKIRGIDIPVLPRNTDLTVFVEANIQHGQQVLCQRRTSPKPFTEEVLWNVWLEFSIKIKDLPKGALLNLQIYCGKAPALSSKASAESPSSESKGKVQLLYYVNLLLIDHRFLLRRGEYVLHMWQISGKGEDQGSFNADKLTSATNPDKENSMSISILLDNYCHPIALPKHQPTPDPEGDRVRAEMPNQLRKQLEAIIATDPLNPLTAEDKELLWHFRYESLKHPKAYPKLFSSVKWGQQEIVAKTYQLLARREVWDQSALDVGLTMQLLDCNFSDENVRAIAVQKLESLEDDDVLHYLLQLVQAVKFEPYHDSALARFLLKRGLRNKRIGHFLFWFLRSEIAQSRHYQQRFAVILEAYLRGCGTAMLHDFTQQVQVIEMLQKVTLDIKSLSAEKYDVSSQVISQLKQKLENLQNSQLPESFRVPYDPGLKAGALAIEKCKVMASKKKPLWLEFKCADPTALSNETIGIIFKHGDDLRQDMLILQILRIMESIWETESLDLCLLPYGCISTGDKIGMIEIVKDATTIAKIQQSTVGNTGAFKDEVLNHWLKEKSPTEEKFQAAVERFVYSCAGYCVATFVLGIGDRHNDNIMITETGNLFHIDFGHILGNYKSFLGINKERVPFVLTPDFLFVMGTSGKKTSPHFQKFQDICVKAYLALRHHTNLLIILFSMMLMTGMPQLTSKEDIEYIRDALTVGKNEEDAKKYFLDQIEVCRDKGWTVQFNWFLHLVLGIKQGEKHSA

Chain of Phosphatidylinositol 4,5-bisphosphate 3-kinase catalytic subunit alpha isoform (P42336 whole entry, canonical isoform): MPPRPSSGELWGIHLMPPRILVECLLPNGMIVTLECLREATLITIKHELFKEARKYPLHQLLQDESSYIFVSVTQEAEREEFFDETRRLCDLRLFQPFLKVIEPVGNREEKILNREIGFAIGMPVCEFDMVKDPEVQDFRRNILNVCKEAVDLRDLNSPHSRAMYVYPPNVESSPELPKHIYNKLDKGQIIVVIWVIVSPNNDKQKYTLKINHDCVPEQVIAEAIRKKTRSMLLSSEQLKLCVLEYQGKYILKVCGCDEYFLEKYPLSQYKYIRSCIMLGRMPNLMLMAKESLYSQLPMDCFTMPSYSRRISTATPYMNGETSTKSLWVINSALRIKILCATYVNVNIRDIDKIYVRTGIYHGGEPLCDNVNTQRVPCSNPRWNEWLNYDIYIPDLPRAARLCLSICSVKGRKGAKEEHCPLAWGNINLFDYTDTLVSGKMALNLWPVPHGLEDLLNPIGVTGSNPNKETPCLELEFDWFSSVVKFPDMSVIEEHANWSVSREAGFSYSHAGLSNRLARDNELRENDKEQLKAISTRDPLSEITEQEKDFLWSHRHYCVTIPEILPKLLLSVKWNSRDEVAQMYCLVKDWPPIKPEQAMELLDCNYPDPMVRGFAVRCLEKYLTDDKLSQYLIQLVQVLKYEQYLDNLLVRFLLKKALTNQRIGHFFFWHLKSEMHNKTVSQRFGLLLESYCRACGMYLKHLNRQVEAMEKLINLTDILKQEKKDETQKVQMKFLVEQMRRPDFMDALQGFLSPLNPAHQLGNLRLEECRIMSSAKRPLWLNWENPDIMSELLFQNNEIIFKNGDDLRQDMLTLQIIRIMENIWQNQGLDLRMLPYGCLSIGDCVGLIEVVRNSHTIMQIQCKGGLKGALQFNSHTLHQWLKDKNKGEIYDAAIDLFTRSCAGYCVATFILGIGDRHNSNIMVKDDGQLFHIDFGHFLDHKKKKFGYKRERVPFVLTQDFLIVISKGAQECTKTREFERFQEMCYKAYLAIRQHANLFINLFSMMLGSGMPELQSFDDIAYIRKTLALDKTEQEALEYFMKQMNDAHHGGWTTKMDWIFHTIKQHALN

Structure (SMILES) | IC50 [1] [nM] | IC50 [2] [nM] | IC50 [3] [nM]
Nc1ncnc2c1c(-c1cc3cc(O)ccc3[nH]1)nn2C1CCOCC1 [US10172858, Table 2.42] | > 500 | > 500 | –
Nc1ncnc2c1c(-c1cc3cc(O)cc(Cl)c3[nH]1)nn2C1CCOCC1 [US10172858, Table 2.68] | – | > 500 | –
CC(=O)N1CCC(n2nc(-c3cc4c(Cl)ccc(O)c4[nH]3)c3c(N)ncnc32)CC1 [US10172858, Table 2.69] | > 500 | > 500 | > 500
CC(=O)N1CCC(n2nc(-c3cc4cc(O)cc(Cl)c4[nH]3)c3c(N)ncnc32)CC1 [US10172858, Table 2.70] | – | > 500 | –

Next, values leading:

IC50 [1] [nM] | IC50 [2] [nM] | IC50 [3] [nM] | Structure (SMILES)
> 500 | > 500 | > 500 | Nc1ncnc2c1c(-c1cc3cccc(O)c3[nH]1)nn2C1CCOCC1 [US10172858, Table 2.62]
– | > 500 | – | COc1cccc2cc(-c3nn(C4CCOCC4)c4ncnc(N)c34)[nH]c12 [US10172858, Table 2.63]
